Laboratory results reported in patent publication US20260209242A1, “CAMPTOTHECIN DERIVATIVE, PHARMACEUTICAL COMPOSITION, AND PREPARATION METHOD AND USE THEREFOR” (priority 2022, published 2026).
Read-outs that look alike come from different tables or passages of the source.

What was measured:
Type in all cases: cell-based
[1] = system: NCI-N87; experiment: Inhibition of proliferation of cells NCI-N87 (CelltiterGlo, 72 h)
Experimental: (§1) • (1) Cell plating: first, tumor cells NCI-N87 were cultured using a corresponding culture medium, trypsinized, centrifuged, resuspended for counting, adjusted to an appropriate concentration, and then plated on a 384-well plate. • (2) Co-incubation of the compounds and tumor cells: after the cells adhered to the wall, 100 nL of a diluted bioactive substance (test compound) was added to the cell culture plate using ECHO, the final concentration of DMSO in wells of the cell plate was 0.33%, and the incubation was performed in an incubator at 37° C. with 0% CO2 for 72 h. • (3) After the incubation was complete, 30 μL of a CTG reagent (CelltiterGlo kit) was added to each well. The culture was oscillated on a fast oscillator for 2 min, centrifuged at 1,000 rpm for 1 min, and kept away from light at room temperature for 30 min. The chemiluminescence signal value was read using an Envision instrument. • (4) Cell viability detection: IC50 was calculated using GraphPad Prism 8 software, and the IC50 of the compounds was obtained using the following nonlinear fitting formula (see Table 3):
[formula] • Y: inhibition rate, X: log value of compound concentration;
(§2) [formula] • high-reading control wells: cells with addition of 100 nL DMSO; and • low-reading control wells: cell-free wells.

[2] = system: MDA-MB-468; experiment: Inhibition of proliferation of cells MDA-MB-468 (CelltiterGlo, 72 h)
Experimental: as §1, with “MDA-MB-468” for “NCI-N87”, “2):” for “3):”
[formula] • Y: inhibition rate: X: log value of compound concentration;
as §2

[3] = system: SK-BR-3; experiment: Inhibition of proliferation of cells SK-BR-3 (CelltiterGlo, 72 h)
Experimental: as §1, with “SK-BR-3” for “NCI-N87”, “5%” for “0%”, “1):” for “3):”
[formula] • Y: inhibition rate; X: log value of compound concentration-,
as §2

[4] = Homo sapiens, NCI-N87, 72 h, read-out: IC50 (nM), antiproliferative activity on cells NCI-N87, NCI-N87 cells, 72 h, CTG
[5] = Homo sapiens, MDA-MB-468, 72 h, read-out: IC50 (nM), antiproliferative activity on MDA-MB-468, MDA-MB-468 cells, 72 h, CTG
[6] = Homo sapiens, SK-BR-3, 72 h, read-out: IC50 (nM), antiproliferative activity on SK-BR-3, SK-BR-3 cells, 72 h, CTG
[7] = NCI-N87 cells, 72 h, CTG, read-out: IC50 (nM), antiproliferative activity on cells NCI-N87
[8] = MDA-MB-468 cells, 72 h, CTG, read-out: IC50 (nM), antiproliferative activity on MDA-MB-468

Compound | IC50 [1, 4] [nM] | IC50 [2, 5] [nM] | IC50 [3, 6] [nM] | IC50 [1, 7] [nM] | IC50 [2, 8] [nM] | also measured
CC[C@@]1(O)C(=O)OCc2c1cc1n(c2=O)Cc2c-1nc1cc(F)c(C)c3c1c2[C@@H](NC(=O)[C@H]1C[C@@H](O)C1)CCC3 [Compound 10, (1S,3R)—N-((1S,10S)-10-ethyl-6-fluoro-10-hydroxy-5-methyl-11,14-dioxo-1,2,3,4,10,11,14,16-octahydro-13H-cyclohepta[de]pyrano[3′,4′:6,7]indolizino[1,2-b]quinolin-1-yl)-3-hydroxycyclobutane-1-carboxamide] | 23 | 13 | 10 |  |  | 
CC[C@@]1(O)C(=O)OCc2c1cc1n(c2=O)Cc2c-1nc1cc(F)c(C)c3c1c2[C@@H](NC(=O)[C@H](O)C1CC1)CCC3 [Compound 11-1, (R)-2-cyclopropyl-N-((1S,10S)-10-ethyl-6-fluoro-10-hydroxy-5-methyl-11,14-dioxo-1,2,3,4,10,11,14,16-octahydro-13H-cyclohepta[de]pyrano[3′,4′:6,7]indolizino[1,2-b]quinolin-1-yl)-2-hydroxyacetamide] |  |  |  |  |  | IC50 ([1]; Homo sapiens, NCI-N87 cells, 72 h, CTG, read-out: IC50 (nM), antiproliferative activity on cells NCI-N87): 2.5 nM; IC50 ([2]; Homo sapiens, MDA-MB-468 cells, 72 h, CTG, read-out: IC50 (nM), antiproliferative activity on MDA-MB-468): 3.9 nM; IC50 ([3]; Homo sapiens, SK-BR-3 cells, 72 h, CTG, read-out: IC50 (nM), antiproliferative activity on SK-BR-3): 2.2 nM
C=Cc1c(F)cc2nc3c(c4c2c1CC[C@@H]4NC(=O)[C@H]1C[C@@H](O)C1)Cn1c-3cc2c(c1=O)COC(=O)[C@]2(O)CC [Compound 12, (1S,3R)—N-((1S,9S)-9-ethyl-5-fluoro-9-hydroxy-10,13-dioxo-4-ethenyl-2,3,9,10,13,15-hexahydro-1H,12H-benzo[d]pyrano[3′,4′:6,7]indolizino[1,2-b]quinolin-1-yl)-3-hydroxycyclobutane-1-carboxamide] | 20 | 9.3 | 5.7 |  |  | 
CC[C@@]1(O)C(=O)OCc2c1cc1n(c2=O)Cc2c-1nc1cc(F)c(C3CC3)c3c1c2C(NC(=O)[C@H]1C[C@@H](O)C1)CC3 (stereo partly drawn) [Compound 18-1, (1S,3S)—N-((1R,9S)-4-cyclopropyl-9-ethyl-5-fluoro-9-hydroxy-10,13-dioxo-2,3,9,10,13,15-hexahydro-1H,12H-benzo[d]pyrano[3′,4′:6,7]indolizino[1,2-b]quinolin-1-yl)-3-hydroxycyclobutane-1-carboxamide] | 11.2 |  | 13.8 |  |  | 
CC[C@@]1(O)C(=O)OCc2c1cc1n(c2=O)Cc2c-1nc1cc(F)c(C3CC3)c3c1c2[C@@H](NC(=O)[C@H](O)C1CC1)CCC3 [Compound 33-1, (R)-2-cyclopropyl-N-((1S,10S)-5-cyclopropyl-10-ethyl-6-fluoro-10-hydroxy-11,14-dioxo-1,2,3,4,10,11,14,16-octahydro-13H-cyclohepta[3′,4′:6,7]indolizino[1,2-b]quinolin-1-yl)-2-hydroxyacetamide] |  |  |  | 8 | 6 | 
CC[C@@]1(O)C(=O)OCc2c1cc1n(c2=O)Cc2c-1nc1cc(F)c(C3CC3)c3c1c2[C@@H](NC(=O)[C@@H](O)C1CC1)CCC3 [Compound 33-2, (S)-2-cyclopropyl-N-((1S,10S)-5-cyclopropyl-10-ethyl-6-fluoro-10-hydroxy-11,14-dioxo-1,2,3,4,10,11,14,16-octahydro-13H-cyclohepta[3′,4′:6,7]indolizino[1,2-b]quinolin-1-yl)-2-hydroxyacetamide] |  |  |  | 9 | 5 | 
CC[C@@]1(O)C(=O)OCc2c1cc1n(c2=O)Cc2c-1nc1cc(F)c(C3CC3)c3c1c2[C@@H](NC(=O)C[C@H](O)C1CC1)CC3 [Compound 34-1, (S)-3-cyclopropyl-N-((1S,9S)-4-cyclopropyl-9-ethyl-5-fluoro-9-hydroxy-10,13-dioxo-2,3,9,10,13,15-hexahydro-1H,12H-benzo[d]pyrano[3′,4′:6,7]indolizino[1,2-b]quinolin-1-yl)-3-hydroxypropanamide] |  |  |  | 6 | 4 | 
CC[C@@]1(O)C(=O)OCc2c1cc1n(c2=O)Cc2c-1nc1cc(F)c(C3CC3)c3c1c2[C@@H](NC(=O)C[C@@H](O)C1CC1)CC3 [Compound 34-2, (R)-3-cyclopropyl-N-((1S,9S)-4-cyclopropyl-9-ethyl-5-fluoro-9-hydroxy-10,13-dioxo-2,3,9,10,13,15-hexahydro-1H,12H-benzo[d]pyrano[3′,4′:6,7]indolizino[1,2-b]quinolin-1-yl)-3-hydroxypropanamide] | 6 | 4 | 4.8 |  |  | 
CC[C@@]1(O)C(=O)OCc2c1cc1n(c2=O)Cc2c-1nc1cc(F)c(C)c3c1c2[C@@H](NC(=O)[C@@H](C)[C@@H](C)O)CCC3 [Compound 39, (2S,3R)—N-((1S,10S)-10-ethyl-6-fluoro-10-hydroxy-5-methyl-11,14-dioxo-1,2,3,4,10,11,14,16-octahydro-13H-cyclohepta[3′,4′:6,7]indolizino[1,2-b]quinolin-1-yl)-3-hydroxy-2-methylbutanamide] | 9.3 | 15 | 11 |  |  | 
(1S,3S)—N-((1R,10S)-5-cyclopropyl-10-ethyl-6-fluoro-10-hydroxy-11,14-dioxo-1,2,3,4,10,11,14,16-octahydro-13H-cyclohepta[de]pyrano[3′,4′:6,7]indolizino[1,2-b]quinolin-1-yl)-3-hydroxybutane-1-carboxamide [Compound 20-1] |  |  |  | 26 | 15.6 | IC50 ([3]; SK-BR-3 cells, 72 h, CTG, read-out: IC50 (nM), antiproliferative activity on SK-BR-3): 21 nM
(S)—N-((1S,10S)-10-ethyl-6-fluoro-10-hydroxy-5-methyl-11,14-dioxo-1,2,3,4,10,11,14,16-octahydro-13H-cyclohepta[3′,4′:6,7]indolizino[1,2-b]quinolin-1-yl)-3-hydroxy-4-methylpentanamide [Compound 37-1] |  |  |  |  | 19 | 
